One molecule from patent US20180298024A1, “CORTISTATIN ANALOGS AND USES THEREOF” (President and Fellows of Harvard College, priority 2015, published 2018) can be followed below.

In data set [1] the test system is Human AML cell line MV4;11. Kind of data set: MV4;11 disseminated leukemia model (bioluminescence). In kind it is in vivo, NSG mice. The note with it: each compound at its own dose/schedule; data from 3 separate studies. How it is done: The in vivo anti-leukemic activity of Compounds A, B, C, D, and F was tested at the indicated doses and treatment schedules. The doses were chosen based on the compounds tolerability profile (i.e. CA was dosed at 0.16 mg/kg because higher doses caused weight loss or other tolerability issues outlined in Example 6). Human AML cell line MV4;11 expressing mCherry and luciferase were injected into NSG mice. Upon measurement of leukemia cell engraftment, treatment was initiated. Body weight and bioluminescence were measured. It has previously been shown (Shair, Nature 2015) that bioluminescence corresponds to leukemia burden. […] Moreover there was no appreciable advantage between IV or PO dosing observed.

In another data set the test system is HEL. Kind of data set: Half-maximal growth inhibition (GI50), HEL. It counts as cell-based. The note with it: Homo sapiens, 240 h, AML, erythroleukemia, JAK2V617F, read-out: GI50 (nM), day 10. How it is done: (§1) Compounds A, B, C, D, and F were tested against various cell lines to probe their broad utility against cancer. Cortistatin A (CA) was also tested against the cell lines in a head to head fashion.

For the next data set, the system named is MOLM-14. Put plainly: Half-maximal growth inhibition (GI50), MOLM-14. The note with it: Homo sapiens, 240 h, AML, M5, MLL-AF9, read-out: GI50 (nM), day 10. It counts as cell-based. How it is done:
as §1

Another data set relates to K562. Kind of data set: Half-maximal growth inhibition (GI50), K562. It counts as cell-based. The note with it: Homo sapiens, 240 h, CML, BCR-Abl, read-out: GI50 (nM), day 10. On the procedure:
as §1

The next data set has as its system MKPL1. Put plainly: Half-maximal growth inhibition (GI50), MKPL1. In kind it is cell-based. The note with it: Homo sapiens, 240 h, AML, M7, read-out: GI50 (nM), day 10. How it is done:
as §1

A short description of a further data set: in vivo. The note with it: male, CD-1, mouse, ip, 0.16 mg/kg.
A further data set relates to SKNO-1. Put plainly: Half-maximal growth inhibition (GI50), SKNO-1. It counts as cell-based. The note with it: Homo sapiens, 240 h, AML, M2, RUNX1-RUNX1T1, read-out: GI50 (nM), day 10. How it is done: as §1
For another data set, the system named is MV4; 11. Kind of data set: Half-maximal growth inhibition (GI50), MV4; 11. In kind it is cell-based. The note with it: Homo sapiens, 240 h, AML, M5, MLL-AF4, read-out: GI50 (nM), day 10. How it is done: as §1
The subject of a further data set is OCI-AML2. Kind of data set: Half-maximal growth inhibition (GI50), OCI-AML2. It counts as cell-based. The note with it: Homo sapiens, 240 h, AML, M4, DNMT3A R635W, read-out: GI50 (nM), day 10. How it is done: as §1

The term GI50 denotes the concentration at which growth is held to half of that of the control. One may read the AUC(0-inf) as total exposure, with the tail of the curve extrapolated. A higher AUC(0-inf) goes with more exposure. Regarding `CN(C)[C@H]1C[C@@]23CC[C@@]4(O2)C(=CC[C@]2(C)[C@@H](c5ccc6ccncc6c5)CC[C@H]24)C=C3[C@@H](O)[C@@H]1O` [Cortistatin A], in data set [1], the “Efficacy Rank Day 15” value is 4. The GI50 in the data set with HEL was over 1000 nM; in the data set on MOLM-14 it was under 1 nM; in the data set with K562 it was over 1000 nM; with MKPL1, under 1 nM; in the data set on SKNO-1 it was under 1 nM; with MV4; 11, under 1 nM. In the data set on OCI-AML2, the GI50 turned out to be 1 nM. In the data set “in vivo”, this molecule showed an AUC(0-inf) of 134 ng·h/mL.
